Results: US11753407B2, “Compounds for treating spinal muscular atrophy” (PTC Therapeutics, Inc., priority 2012, dated 2023)

What was measured:
[1] = test system: Smn protein in SMA patient fibroblast cells (GM03813); test: Smn protein assay in cultured cells (SMN HTRF); format: cell-based, human; conditions: SMA patient fibroblast cells, 48 hours; for maximum fold (Fold) increase of Smn protein: 7-point concentration data, fold relative to vehicle control; for EC1.5x for Smn protein expression: 7-point concentration curve, SMN HTRF, concentration producing 1.5 times Smn protein vs DMSO vehicle control
In short: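 SMA patient fibroblasts (5,000/well, DMEM-10% FBS) treated 48 h at 37° C with 7-point, 3.16-fold compound series in triplicate; lysates read by SMN HTRF (665/620 nm ratio). Fold Smn increase over DMSO vehicle derived; EC1.5× is concentration giving 1.5-fold Smn, with maximum fold also reported.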

[2] = test system: SMN2 minigene mRNA (SMN2-A minigene) in HEK293H cells; test: SMN2 minigene mRNA splicing RT-qPCR assay in cultured cells; format: cell-based, human; conditions: Homo sapiens, HEK293-H; concentration increasing full length SMN2 mRNA 1.5-fold relative to vehicle-treated cells; HEK293H cells with SMN2-A minigene, 24 hours, 7-point concentration data; read-out: EC1.5x for production of full length SMN2 mRNA
In short: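 HEK293H cells stably carrying SMN2-A minigene treated with compounds (7-point, 3.16-fold dilutions, duplicates) for 24 h at 37 °C. Full-length exon 7-containing minigene mRNA measured by multiplex RT-qPCR with GAPDH, normalized and expressed relative to vehicle (modified ΔΔCt); EC1.5× is concentration giving 1.5-fold increase.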

SMILES	melting point [°C]	maximum fold (Fold) increase of Smn protein [1]	EC (1.5-fold increase) [2] [µM]	EC1.5x for Smn protein expression [1]
COc1ccc(-c2cc(=O)n3cc(C4=CCN(C5CCC5)CC4)ccc3n2)cc1OC [Compound 362, 7-(1-cyclobutyl-1,2,3,6-tetrahydropyridin-4-yl)-2-(3,4-dimethoxyphenyl)-4H-pyrido[1,2-a]pyrimidin-4-one]	152 to 154	*** (a fold increase between >1.35 and ≤1.5 is indicated by three stars (***))	0.3 to 1	–
COc1ccc(-c2cc(=O)n3cc(C4=CCN(C(C)C)CC4)ccc3n2)cc1OC [Compound 363, 2-(3,4-dimethoxyphenyl)-7-[1-(propan-2-yl)-1,2,3,6-tetrahydropyridin-4-yl]-4H-pyrido[1,2-a]pyrimidin-4-one]	116 to 118	** (a fold increase between >1.2 and ≤1.35 is indicated by two stars (**))	0.3 to 1	–
COc1ccc(-c2cc(=O)n3cc(C4=CCN(C5COC5)CC4)ccc3n2)cc1OC [Compound 364, 2-(3,4-dimethoxyphenyl)-7-[1-(oxetan-3-yl)-1,2,3,6-tetrahydropyridin-4-yl]-4H-pyrido[1,2-a]pyrimidin-4-one]	178 to 180	* (A maximum fold increase of ≤1.2 is indicated by one star (*))	1 to 3	–
CCCN1CC=C(c2ccc3nc(-c4ccc(OC)c(OC)c4)cc(=O)n3c2)CC1 [Compound 365, 2-(3,4-dimethoxyphenyl)-7-(1-propyl-1,2,3,6-tetrahydropyridin-4-yl)-4H-pyrido[1,2-a]pyrimidin-4-one]	158 to 160	*** (a fold increase between >1.35 and ≤1.5 is indicated by three stars (***))	0.1 to 0.3	–
CNC1CC=C(c2ccc3nc(-c4ccc(OC)c(OC)c4)cc(=O)n3c2)CC1 (stereo not shown) [Compound 366, 2-(3,4-dimethoxyphenyl)-7-[4-(methylamino)cyclohex-1-en-1-yl]-4H-pyrido[1,2-a]pyrimidin-4-one]	232 to 235	**** (a fold increase between >1.5 and ≤1.65 is indicated by four stars (****))	< 0.1	**** (an EC1.5x≤0.3 μM is indicated by four stars (****))
COc1ccc(-c2cc(=O)n3cc(C4=CCC(N(C)C)CC4)ccc3n2)cc1OC (stereo not shown) [Compound 367, 2-(3,4-dimethoxyphenyl)-7-[4-(dimethylamino)cyclohex-1-en-1-yl]-4H-pyrido[1,2-a]pyrimidin-4-one]	162 to 164	*** (a fold increase between >1.35 and ≤1.5 is indicated by three stars (***))	< 0.1	* (An EC1.5× for Smn protein expression between >3 μM and ≤10 μM is indicated by one star (*))
CCN(C)C1CC=C(c2ccc3nc(-c4ccc(OC)c(OC)c4)cc(=O)n3c2)CC1 (stereo not shown) [Compound 368, 2-(3,4-dimethoxyphenyl)-7-{4-[ethyl(methyl)amino]cyclohex-1-en-1-yl}-4H-pyrido[1,2-a]pyrimidin-4-one]	132 to 134	**** (a fold increase between >1.5 and ≤1.65 is indicated by four stars (****))	< 0.1	*** (an EC1.5× between >0.3 μM and ≤1 μM is indicated by three stars (***))
CCCN(C)C1CC=C(c2ccc3nc(-c4ccc(OC)c(OC)c4)cc(=O)n3c2)CC1 (stereo not shown) [Compound 369, 2-(3,4-dimethoxyphenyl)-7-{4-[methyl(propyl)amino]cyclohex-1-en-1-yl}-4H-pyrido[1,2-a]pyrimidin-4-one]	116 to 118	*** (a fold increase between >1.35 and ≤1.5 is indicated by three stars (***))	< 0.1	** (an EC1.5× between >1 μM and ≤3 μM is indicated by two stars (**))
CCN1CC=C(c2ccc3nc(-c4ccc(OC)c(OC)c4)cc(=O)n3c2)CC1 [Compound 370, 2-(3,4-dimethoxyphenyl)-7-(1-ethyl-1,2,3,6-tetrahydropyridin-4-yl)-4H-pyrido[1,2-a]pyrimidin-4-one]	170 to 172	***** (a fold increase >1.65 is indicated by five stars (*****))	0.1 to 0.3	*** (an EC1.5× between >0.3 μM and ≤1 μM is indicated by three stars (***))
COc1ccc(-c2ccc3nc(C4=CCNCC4)cc(=O)n3c2)cc1OC [Compound 371, 7-(3,4-dimethoxyphenyl)-2-(1,2,3,6-tetrahydropyridin-4-yl)-4H-pyrido[1,2-a]pyrimidin-4-one]	172 to 178	**** (a fold increase between >1.5 and ≤1.65 is indicated by four stars (****))	0.1 to 0.3	*** (an EC1.5× between >0.3 μM and ≤1 μM is indicated by three stars (***))
Cc1cn2cc(-c3cc(=O)n4cc(N5CCN(C(C)C)CC5)ccc4n3)cc(F)c2n1 [Compound 373, 2-(8-fluoro-2-methylimidazo[1,2-a]pyridin-6-yl)-7-[4-(propan-2-yl)piperazin-1-yl]-4H-pyrido[1,2-a]pyrimidin-4-one]	260 to 264	**** (a fold increase between >1.5 and ≤1.65 is indicated by four stars (****))	< 0.1	**** (an EC1.5x≤0.3 μM is indicated by four stars (****))
Cc1cn2cc(-c3cc(=O)n4cc(N5CCN(C(C)C)CC5)ccc4n3)cc(Cl)c2n1 [Compound 374, 2-(8-chloro-2-methylimidazo[1,2-a]pyridin-6-yl)-7-[4-(propan-2-yl)piperazin-1-yl]-4H-pyrido[1,2-a]pyrimidin-4-one]	287 to 292	***** (a fold increase >1.65 is indicated by five stars (*****))	< 0.1	**** (an EC1.5x≤0.3 μM is indicated by four stars (****))
Cc1cn2cc(-c3ccc4nc(C5=CCNCC5)cc(=O)n4c3)ccc2n1 [Compound 375, 7-(2-methylimidazo[1,2-a]pyridin-6-yl)-2-(1,2,3,6-tetrahydropyridin-4-yl)-4H-pyrido[1,2-a]pyrimidin-4-one]	197 to 201	**** (a fold increase between >1.5 and ≤1.65 is indicated by four stars (****))	< 0.1	**** (an EC1.5x≤0.3 μM is indicated by four stars (****))
Cc1cn2cc(-c3ccc4nc(C5=CCN(C)CC5)cc(=O)n4c3)ccc2n1 [Compound 376, 7-(2-methylimidazo[1,2-a]pyridin-6-yl)-2-(1-methyl-1,2,3,6-tetrahydropyridin-4-yl)-4H-pyrido[1,2-a]pyrimidin-4-one]	203 to 207	*** (a fold increase between >1.35 and ≤1.5 is indicated by three stars (***))	< 0.1	*** (an EC1.5× between >0.3 μM and ≤1 μM is indicated by three stars (***))
COc1ccc(-c2ccc3nc(C4=CCN(C)CC4)cc(=O)n3c2)cc1OC [Compound 377, 7-(3,4-dimethoxyphenyl)-2-(1-methyl-1,2,3,6-tetrahydropyridin-4-yl)-4H-pyrido[1,2-a]pyrimidin-4-one]	149 to 152	**** (a fold increase between >1.5 and ≤1.65 is indicated by four stars (****))	0.3 to 1	** (an EC1.5× between >1 μM and ≤3 μM is indicated by two stars (**))
CCCN1CC=C(c2cc(C)c3nc(-c4ccc(OC)c(OC)c4)cc(=O)n3c2)CC1 [Compound 378, 2-(3,4-dimethoxyphenyl)-9-methyl-7-(1-propyl-1,2,3,6-tetrahydropyridin-4-yl)-4H-pyrido[1,2-a]pyrimidin-4-one]	171 to 177	**** (a fold increase between >1.5 and ≤1.65 is indicated by four stars (****))	< 0.1	** (an EC1.5× between >1 μM and ≤3 μM is indicated by two stars (**))
COc1ccc(-c2cc(=O)n3cc(C4=CCN(C5CCC5)CC4)cc(C)c3n2)cc1OC [Compound 379, 7-(1-cyclobutyl-1,2,3,6-tetrahydropyridin-4-yl)-2-(3,4-dimethoxyphenyl)-9-methyl-4H-pyrido[1,2-a]pyrimidin-4-one]	167 to 178	*** (a fold increase between >1.35 and ≤1.5 is indicated by three stars (***))	0.1 to 0.3	–
Cc1nc2ccc(-c3cc(=O)n4cc(N5CCC(N)CC5)ccc4n3)cc2s1 [Compound 381, 7-(4-aminopiperidin-1-yl)-2-(2-methyl-1,3-benzothiazol-6-yl)-4H-pyrido[1,2-a]pyrimidin-4-one]	190 to 194	*** (a fold increase between >1.35 and ≤1.5 is indicated by three stars (***))	0.1 to 0.3	* (An EC1.5× for Smn protein expression between >3 μM and ≤10 μM is indicated by one star (*))
